# Where two headings read alike, the source gives them in different places.
# Columns and labels:
# Format in all cases: in vivo
# Aphis fabae = assay: Test against aphid, leaf dip method (Aphis fabae); conditions: foliar; for mortality at 12.5 µg/mL / mortality at 50 µg/mL / mortality at 200 µg/mL / mortality at 500 µg/mL: read-out: Activity (mortality) level against Aphis fabae; for LC50: read-out: LC50 against Aphis fabae
# Procedure: For evaluating the activity of the compounds of this invention against Homoptera pests, Aphis fabae, wheat aphids, etc. were selected as the test insects, and the activity of the compounds of this invention against aphids was measured by leaf dip method indoors.
# Leaf dip method (Aphis fabae): the test compound was dissolved in an appropriate solvent such as N,N-dimethylformamide, and then diluted with 0.2% aqueous solution of Tween 80 to the desired concentration, Those without the test compounds were set as blank controls, the treatments were replicated 3 times. Horsebean seedlings with no less than twenty 3-day-old Aphis fabae per plant was cut from the stem, 5 horsebean seedlings with the insects were dipped in the test solution for 5 seconds, then inserted into a sponge filled with water after sucked dry using filter paper, then covered with a glass tube and placed in a chamber for culture. After 24 hours, the number of living and dead insects were investigated and the results were averaged. […]
# [1] = system: Armyworm (Mythimna separata (Walker)); assay: Test against armyworm, Potter tower method; conditions: for mortality at 12.5 µg/mL / mortality at 50 µg/mL / mortality at 500 µg/mL: Mythimna separata, read-out: Activity (mortality) level against armyworm; for Activity against armyworm, further screening (in words): compared with chlorantraniliprole (D1)
# Procedure: Potter tower method: the test compound was dissolved in an appropriate solvent such as N,N-dimethylformamide, and then diluted with 0.2% aqueous solution of Tween 80 to the desired concentration, Those without the test compounds were set as blank controls. The fresh and tender corn leaves were taken and cut into fragments of basically the same size, then put into a Petri dish (diameter 90 mm) padded with filter paper in advance. Ten third-instar larvae of test insects were transferred into the dish and then placed under the Potter spray tower for being sprayed, each concentration treatment was sprayed at the amount of 1 mL and replicated 3 times. The dish was covered and then placed in a chamber for culture and observed regularly, after 72 hours, the dead insects was investigated and recorded and the mean mortality was calculated. […]
# [2] = system: Diamondback moth (Plutella xylostella (Linnaeus)); assay: Test against diamondback moth, leaf disc dip; conditions: after 72 hours; for LC50: Plutella xylostella, foliar, read-out: Lethal medium concentration LC50 against diamondback moth; for Activity against diamondback moth (in words): second-instar larvae
# Procedure: (§1) The test compound was dissolved in an appropriate solvent such as N,N-dimethylformamide, and then diluted with 0.2% aqueous solution of Tween 80 to the desired concentration, Those without the test compounds were set as blank controls, the treatments were replicated 3 times. The cabbage leaves were perforated to get 18 mm diameter leaf discs by a hole puncher, 5 leaf discs were dipped in the test solution for 10 seconds and then put into a Petri dish (diameter 90 mm) padded with moisturizing filter paper, after air-drying, the leaf discs were infested with no less than ten second-instar larvae of test insects which were starved for 4 hours, and then the dish was covered and placed in a chamber for culture. After 72 hours, the number of dead insects was investigated, the mortality was calculated, and the regression equation, correlation coefficient (r) and the median lethal concentration (LC50) were obtained using Probit analysis method.
# [3] = system: Spodoptera litura (Fabricius); assay: Test against Spodoptera litura, leaf disc dip; conditions: after 72 hours; for Median lethal concentration LC50 against Spodoptera litura, compared with D1: same conditions; for Activity against Spodoptera litura (in words): second-instar larvae
# Procedure: as §1
# [4] = 12.5 mg/L, third-instar larvae, after 72 hours
# [5] = 50 mg/L, third-instar larvae, after 72 hours
# [6] = 500 mg/L, third-instar larvae, after 72 hours
SMILES,"mortality at 12.5 µg/mL (Aphis fabae; 12.5 mg/L, after 24 hours)","mortality at 50 µg/mL (Aphis fabae; 50 mg/L, after 24 hours)","mortality at 200 µg/mL (Aphis fabae; 200 mg/L, after 24 hours)","mortality at 500 µg/mL (Aphis fabae; 500 mg/L, after 24 hours)","mortality at 50 µg/mL [1, 5]","mortality at 500 µg/mL [1, 6]","Activity against armyworm, further screening (in words) [1]",Activity against diamondback moth (in words) [2],Activity against Spodoptera litura (in words) [3],also measured
"CNC(=O)c1cc(Cl)cc(Cl)c1N(C)C(=O)c1cc(Br)nn1-c1ncccc1Cl [Compound 1, N-[2,4-dichloro-6-[(methylamino)carbonyl]phenyl]-N-methyl-1-(3-chloro-2-pyridinyl)-3-bromo-1H-pyrazole-5-carboxamide]",90 to 100%,90 to 100%,90 to 100%,90 to 100%,90 to 100%,90 to 100%,excellent activity,high activity at very low concentration,high activity at very low concentration,"LC50 (Aphis fabae; further test): < 1 µg/mL; Activity against armyworm ([1]; 1.25 mg/L): 75%; mortality at 12.5 µg/mL [1, 4]: 90 to 100%; LC50 [2]: < 1 µg/mL; Median lethal concentration LC50 against Spodoptera litura, compared with D1 [3]: lower than that of chlorantraniliprole (D1)"
"CCNC(=O)c1cc(Cl)cc(Cl)c1N(C)C(=O)c1cc(Br)nn1-c1ncccc1Cl [Compound 2, N-[2,4-dichloro-6-[(ethylamino)carbonyl]phenyl]-N-methyl-1-(3-chloro-2-pyridinyl)-3-bromo-1H-pyrazole-5-carboxamide]",90 to 100%,90 to 100%,90 to 100%,90 to 100%,90 to 100%,90 to 100%,excellent activity,high activity at very low concentration,high activity at very low concentration,"LC50 (Aphis fabae; further test): < 1 µg/mL; mortality at 12.5 µg/mL [1, 4]: 90 to 100%; LC50 [2]: < 1 µg/mL; Median lethal concentration LC50 against Spodoptera litura, compared with D1 [3]: lower than that of chlorantraniliprole (D1)"
"CCN(C(=O)c1cc(Br)nn1-c1ncccc1Cl)c1c(Cl)cc(Cl)cc1C(=O)NC [Compound 9, N-[2,4-dichloro-6-[(methylamino)carbonyl]phenyl]-N-ethyl-1-(3-chloro-2-pyridinyl)-3-bromo-1H-pyrazole-5-carboxamide]",90 to 100%,90 to 100%,90 to 100%,90 to 100%,90 to 100%,90 to 100%,excellent activity,high activity at very low concentration,high activity at very low concentration,–
"CCNC(=O)c1cc(Cl)cc(Cl)c1N(CC)C(=O)c1cc(Br)nn1-c1ncccc1Cl [Compound 10, N-[2,4-dichloro-6-[(ethylamino)carbonyl]phenyl]-N-ethyl-1-(3-chloro-2-pyridinyl)-3-bromo-1H-pyrazole-5-carboxamide]",90 to 100%,90 to 100%,90 to 100%,90 to 100%,90 to 100%,90 to 100%,excellent activity,high activity at very low concentration,high activity at very low concentration,"LC50 (Aphis fabae; further test): < 1 µg/mL; mortality at 12.5 µg/mL [1, 4]: 90 to 100%; Median lethal concentration LC50 against Spodoptera litura, compared with D1 [3]: lower than that of chlorantraniliprole (D1)"
"CN(C)C(=O)c1cc(Cl)cc(Cl)c1N(C)C(=O)c1cc(Br)nn1-c1ncccc1Cl [Compound 11, N-[2,4-dichloro-6-[(dimethylamino)carbonyl]phenyl]-N-methyl-1-(3-chloro-2-pyridinyl)-3-bromo-1H-pyrazole-5-carboxamide]",90 to 100%,90 to 100%,90 to 100%,90 to 100%,90 to 100%,90 to 100%,excellent activity,high activity at very low concentration,high activity at very low concentration,"LC50 (Aphis fabae; further test): < 1 µg/mL; mortality at 12.5 µg/mL [1, 4]: 90 to 100%; LC50 [2]: < 1 µg/mL"
"CCNC(=O)c1cc(Cl)cc(C)c1N(C)C(=O)c1cc(Br)nn1-c1ncccc1Cl [Compound 43, N-[2-methyl-4-chloro-6-[(ethylamino)carbonyl]phenyl]-N-methyl-1-(3-chloro-2-pyridinyl)-3-bromo-1H-pyrazole-5-carboxamide]",–,–,–,90 to 100%,90 to 100%,90 to 100%,–,–,–,–
"Cc1cc(Cl)cc(C(=O)N(C)C)c1N(C)C(=O)c1cc(Br)nn1-c1ncccc1Cl [Compound 44, N-[2-methyl-4-chloro-6-[(dimethylamino)carbonyl]phenyl]-N-methyl-1-(3-chloro-2-pyridinyl)-3-bromo-1H-pyrazole-5-carboxamide]",–,–,–,90 to 100%,90 to 100%,90 to 100%,–,–,–,–
"CCN(C)C(=O)c1cc(Cl)cc(C)c1N(C)C(=O)c1cc(Br)nn1-c1ncccc1Cl [Compound 45, N-[2-methyl-4-chloro-6-[(methyl(ethyl)amino)carbonyl]phenyl]-N-methyl-1-(3-chloro-2-pyridinyl)-3-bromo-1H-pyrazole-5-carboxamide]",–,–,–,90 to 100%,–,90 to 100%,–,–,–,–
"CCCN(C)C(=O)c1cc(Cl)cc(C)c1N(C)C(=O)c1cc(Br)nn1-c1ncccc1Cl [Compound 46, N-[2-methyl-4-chloro-6-[(methyl(propyl)amino)carbonyl]phenyl]-N-methyl-1-(3-chloro-2-pyridinyl)-3-bromo-1H-pyrazole-5-carboxamide]",–,–,90 to 100%,90 to 100%,90 to 100%,90 to 100%,–,–,–,–
"Cc1cc(Cl)cc(C(=S)N(C)C)c1N(C)C(=O)c1cc(Br)nn1-c1ncccc1Cl [Compound 47, N-[2-methyl-4-chloro-6-[(dimethylamino)thioxomethyl]phenyl]-N-methyl-1-(3-chloro-2-pyridinyl)-3-bromo-1H-pyrazole-5-carboxamide]",90 to 100%,90 to 100%,90 to 100%,90 to 100%,90 to 100%,90 to 100%,–,–,–,–
"CCN(CC)C(=O)c1cc(Br)cc(C)c1N(C)C(=O)c1cc(Br)nn1-c1ncccc1Cl [Compound 48, N-[2-methyl-4-bromo-6-[(diethylamino)carbonyl]phenyl]-N-methyl-1-(3-chloro-2-pyridinyl)-3-bromo-1H-pyrazole-5-carboxamide]",–,–,–,90 to 100%,90 to 100%,90 to 100%,–,–,–,–
"CCN(CC)C(=O)c1cc(Br)cc(C)c1N(CC)C(=O)c1cc(Br)nn1-c1ncccc1Cl [Compound 49, N-[2-methyl-4-bromo-6-[(diethylamino)carbonyl]phenyl]-N-ethyl-1-(3-chloro-2-pyridinyl)-3-bromo-1H-pyrazole-5-carboxamide]",–,–,90 to 100%,90 to 100%,90 to 100%,90 to 100%,–,–,–,–
"CNC(=O)c1cc(C#N)cc(C)c1NC(=O)c1cc(Br)nn1-c1ncccc1Cl [Compound D2, cyantraniliprole, reference compound]",–,–,–,–,–,–,–,–,–,mortality at 12.5 µg/mL (Aphis fabae; 24 h): 90 to 100%; mortality at 50 µg/mL (Aphis fabae; 24 h): 90 to 100%; mortality at 200 µg/mL (Aphis fabae; 24 h): 90 to 100%; mortality at 500 µg/mL (Aphis fabae; 24 h): 90 to 100%; LC50 (Aphis fabae): > 1 µg/mL; mortality at 12.5 µg/mL ([1]; 72 h): 90 to 100%; mortality at 50 µg/mL ([1]; 72 h): 90 to 100%; mortality at 500 µg/mL ([1]; 72 h): 90 to 100%
"CC(NC(=O)c1cc(Cl)cc(Br)c1NC(=O)c1cc(Br)nn1-c1ncccc1Cl)C1CC1 (centres unmarked) [Compound D3, cyclaniliprole, reference compound]",–,–,–,–,–,–,–,–,–,mortality at 12.5 µg/mL (Aphis fabae; 24 h): 90 to 100%; mortality at 50 µg/mL (Aphis fabae; 24 h): 90 to 100%; mortality at 200 µg/mL (Aphis fabae; 24 h): 90 to 100%; mortality at 500 µg/mL (Aphis fabae; 24 h): 90 to 100%; LC50 (Aphis fabae): > 1 µg/mL; mortality at 12.5 µg/mL ([1]; 72 h): 70 to 90%; mortality at 50 µg/mL ([1]; 72 h): 90 to 100%; mortality at 500 µg/mL ([1]; 72 h): 90 to 100%
